Patent publication US20250093263A1, “FRET-BASED ASSAYS” (The General Hospital Corporation, priority 2021, published 2025)
Blank lines part the entries; values can stand above or below the molecule they belong to.

Key:
BRD4(BD1) = biological target: T1, BRD4(BD1) (Homo sapiens, UniProt O60885); assay: TR-FRET saturation binding of JQ1-FITC, BRD4(BD1); conditions: 0.5 nM GST-BRD4(BD1), 2 nM CoraFluor-1-labeled anti-GST VHH; read-out: KD,app BRD4(BD1)
T1 construct: validated for its applicability with individual recombinant bromodomains BRD4(BD1) and BRD4(BD2); purchased BPS Biosciences, Inc 31040
Procedure: (§1) TR-FRET measurements: unless otherwise noted, experiments were performed in white, 384-well microtiter plates (Corning 3572) in 30 μL assay volume. […] The 490/10 and 520/10 emission channels were acquired with a 50% mirror and a dichroic 510 mirror, respectively, using independently optimized detector gain settings unless specified otherwise. The TR-FRET ratio was taken as the 520/490 nm intensity ratio on a per-well basis.
(§2) Determination of apparent equilibrium dissociation constant (KD,app) of JQ1-FITC toward individual recombinant bromodomains and endogenous BRD4 in MCF7 lysate: recombinant BRD4(BD1) and BRD4(BD2) were purchased from BPS Biosciences, Inc and Epicypher, Inc (GST-BRD4(BD1), 31040; GST-BRD4(BD2), 15-0013, respectively). Recombinant bromodomains were diluted to 0.5 nM in assay buffer (25 mM HEPES, 150 mM NaCl, 0.5 mg/mL BSA, 0.005% TWEEN-20, pH 7.5) with 2 nM CoraFluor-1-labeled anti-GST VHH, then JQ1-FITC was added in serial dilution (1:1.6 titration, 15-point, cmax=100 nM) using a D300 digital dispenser (Hewlett-Packard) and allowed to equilibrate for 2 h at room temperature before TR-FRET measurements were taken. Nonspecific signal was determined with 50 μM JQ1-Acid, and data were fitted to a One Site—Specific Binding model in Prism 9.

BRD4(BD2) = biological target: T2, BRD4(BD2) (Homo sapiens, UniProt O60885); assay: TR-FRET saturation binding of JQ1-FITC, BRD4(BD2); conditions: 0.5 nM GST-BRD4(BD2), 2 nM CoraFluor-1-labeled anti-GST VHH; read-out: KD,app BRD4(BD2)
T2 construct: validated for its applicability with individual recombinant bromodomains BRD4(BD1) and BRD4(BD2); purchased Epicypher, Inc 15-0013
Procedure: as §1, §2

HDAC1 Recombinant [1] = biological target: T3, HDAC1 Recombinant (Homo sapiens, UniProt Q13547); assay: HDAC1 enzymatic activity assay with recombinant protein; format: biochemical; conditions: 5 nM HDAC1, 18 μM MAZ1600 substrate (3 × KM), 3 h incubation
T3 construct: purchased BPS Bioscience Inc 50051
T3 sequence (Q13547 whole entry): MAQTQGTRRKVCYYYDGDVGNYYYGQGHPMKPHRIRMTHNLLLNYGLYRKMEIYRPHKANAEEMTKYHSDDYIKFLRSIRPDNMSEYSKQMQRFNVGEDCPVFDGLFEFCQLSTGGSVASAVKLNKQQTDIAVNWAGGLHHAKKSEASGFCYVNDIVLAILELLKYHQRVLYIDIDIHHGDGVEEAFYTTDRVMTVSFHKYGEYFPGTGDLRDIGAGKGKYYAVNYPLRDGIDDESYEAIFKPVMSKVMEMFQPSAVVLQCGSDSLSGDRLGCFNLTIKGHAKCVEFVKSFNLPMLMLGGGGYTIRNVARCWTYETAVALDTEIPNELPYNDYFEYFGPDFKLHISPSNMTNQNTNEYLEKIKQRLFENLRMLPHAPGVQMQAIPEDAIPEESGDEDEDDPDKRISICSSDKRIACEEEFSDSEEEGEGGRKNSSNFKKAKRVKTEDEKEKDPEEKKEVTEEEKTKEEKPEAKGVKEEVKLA

HDAC1 Recombinant [2] = biological target: T3, HDAC1 Recombinant; assay: TR-FRET assay with recombinant HDAC1; format: binding; conditions: 5 nM HDAC1, 2.5 nM Tb-Anti-6xHis IgG, 20 nM SAHA-NCT, 3 h
HDAC1-HaloTag = HDAC1-HaloTag (Homo sapiens, UniProt Q13547)
HDAC1-HaloTag, sequence (Q13547 whole entry): as above

[3] = biological target: HDAC1-HaloTag in HEK293T cells (Homo sapiens, UniProt Q13547); assay: Cellular TR-FRET target engagement assay, HDAC1-HaloTag in HEK293T cells; format: cell-based; conditions: HEK-293T, read-out: Cellular TR-FRET assay SAHA-NCT 1 μM EC50 column: % @ 100
HDAC1-HaloTag in HEK293T cells, sequence (Q13547 whole entry): as above

[4] = biological target: T4, HsmPheRS (human mitochondrial PheRS) (Homo sapiens, UniProt O95363); assay: TR-FRET titration of tracer MAT588, HsmPheRS; format: binding; conditions: absence of substrates, titrating
T4 construct: rows headed: HsmPheRS KD; other: absence of substrates, titrating; human mitochondrial PheRS (HisHalo-HsmPheRS); fused on or other part: C-terminal HaloTag, HRV-3C site and His9 tag; the CoraFluor-1 terbium donor is attached through the HaloTag or by direct Pfp labelling
T4 sequence (O95363 42-357 limits assumed): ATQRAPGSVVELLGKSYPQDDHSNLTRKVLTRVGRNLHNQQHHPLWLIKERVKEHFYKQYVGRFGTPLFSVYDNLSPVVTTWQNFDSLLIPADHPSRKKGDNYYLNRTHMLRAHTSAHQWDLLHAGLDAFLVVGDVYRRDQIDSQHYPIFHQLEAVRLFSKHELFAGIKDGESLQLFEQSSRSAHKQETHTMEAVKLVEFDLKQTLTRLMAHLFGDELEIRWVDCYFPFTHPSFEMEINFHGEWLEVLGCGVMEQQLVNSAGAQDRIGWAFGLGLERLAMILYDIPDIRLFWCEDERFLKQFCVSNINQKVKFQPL

[5] = tested on: HsmPheRS (human mitochondrial PheRS); assay: TR-FRET titration of tracer MAT588, HsmPheRS; format: binding
[6] = biological target: T5, HscPheRS (human cytoplasmic PheRS) (Homo sapiens, UniProt Q9Y285); assay: TR-FRET titration of tracer MAT588, HscPheRS; format: binding; conditions: absence of substrates
T5 construct: HisHalo-HscPheRS; alpha subunit residues 1-508; beta subunit residues 1-589; made in house; host or cells: E. coli
T5 sequence (Q9Y285 1-508): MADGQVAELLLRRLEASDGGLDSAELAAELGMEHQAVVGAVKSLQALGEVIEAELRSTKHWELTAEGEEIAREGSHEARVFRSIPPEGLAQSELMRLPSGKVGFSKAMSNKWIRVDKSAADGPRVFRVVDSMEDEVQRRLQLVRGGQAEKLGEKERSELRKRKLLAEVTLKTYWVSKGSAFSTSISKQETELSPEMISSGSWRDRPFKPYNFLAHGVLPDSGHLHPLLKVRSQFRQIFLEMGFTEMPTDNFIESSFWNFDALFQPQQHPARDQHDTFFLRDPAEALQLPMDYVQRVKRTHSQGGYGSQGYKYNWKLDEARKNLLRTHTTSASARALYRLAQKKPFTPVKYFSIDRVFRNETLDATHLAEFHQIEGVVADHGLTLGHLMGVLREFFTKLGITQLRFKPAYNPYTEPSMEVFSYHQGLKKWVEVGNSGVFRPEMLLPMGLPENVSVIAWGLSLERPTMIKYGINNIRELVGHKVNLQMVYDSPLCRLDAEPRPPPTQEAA
T5 sequence (Q9NSD9 1-589 partner): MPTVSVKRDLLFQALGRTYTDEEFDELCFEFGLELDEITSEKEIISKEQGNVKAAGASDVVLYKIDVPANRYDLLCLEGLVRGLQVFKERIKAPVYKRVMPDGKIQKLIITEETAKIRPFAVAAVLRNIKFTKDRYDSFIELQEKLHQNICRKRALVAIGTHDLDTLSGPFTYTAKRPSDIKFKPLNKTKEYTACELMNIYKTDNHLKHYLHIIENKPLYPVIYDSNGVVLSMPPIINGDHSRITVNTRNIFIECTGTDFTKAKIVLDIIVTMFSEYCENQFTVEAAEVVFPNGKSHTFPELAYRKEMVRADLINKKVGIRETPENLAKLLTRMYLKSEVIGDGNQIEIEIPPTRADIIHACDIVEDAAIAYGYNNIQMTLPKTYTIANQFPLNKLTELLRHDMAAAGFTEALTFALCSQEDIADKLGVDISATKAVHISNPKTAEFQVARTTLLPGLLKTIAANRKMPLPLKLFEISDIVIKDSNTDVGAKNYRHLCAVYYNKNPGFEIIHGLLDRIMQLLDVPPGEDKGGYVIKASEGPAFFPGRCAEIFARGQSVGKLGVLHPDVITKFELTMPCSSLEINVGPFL

Kd (BRD4(BD1)): 6.5 ± 1.1 nM
Kd (BRD4(BD2)): 5.8 ± 1.5 nM
Structure (SMILES): Cc1sc2c(c1C)C(c1ccc(Cl)cc1)=NC(CC(=O)NCCCOCCOCCOCCCNC(=S)Nc1ccc(-c3c4ccc(=O)cc-4oc4cc(O)ccc34)c(C(=O)O)c1)c1nnc(C)n1-2 (stereo not shown) [JQ1-FITC, 5-(3-(1-(4-(4-chlorophenyl)-2,3,9-trimethyl-6H-thieno[3,2-f][1,2,4]triazolo[4,3-a][1,4]diazepin-6-yl)-2-oxo-7,10,13-trioxa-3-azahexadecan-16-y)thioureido)-2-(6-hydroxy-3-oxo-3H-xanthen-9-yl)benzoic acid]

IC50 (HDAC1 Recombinant [1]): 8 nM
Kd (HDAC1 Recombinant [1]): 2 nM
Kd (HDAC1 Recombinant [2]): 9 nM
Kd (HDAC1-HaloTag): 9 nM
Structure (SMILES): O=C(CCCCCCC(=O)Nc1ccc(CNC(=O)c2ccc(C(=O)O)c(C3=c4cc5c6c(c4Oc4c3cc3c7c4CCCN7CCCC3)CCC[N+]=6CCCC5)c2)cc1)NO [SAHA-NCT]

Structure (SMILES): CC(=O)Nc1ccc(C(=O)Nc2ccccc2N)cc1 [CI-994]
inhibition at 100 µM [3]: < 5%

Structure (SMILES): Nc1ncnc2c1ncn2[C@@H]1O[C@H](CN(CCCCCCOCCOCCNC(=O)c2ccc(C(=O)O)c(-c3c4ccc(=O)cc-4oc4cc(O)ccc34)c2)S(=O)(=O)NC(=O)[C@@H](N)Cc2ccccc2)[C@@H](O)[C@H]1O [MAT588, 4-((2-(2-((6-((N-(L-phenylalanyl)sulfamoyl)(((2R,3S,4R,5R)-5-(6-amino-9H-purin-9-yl)-3,4-dihydroxytetrahydrofuran-2-yl)methyl)amino)hexyl)oxy)ethoxy)ethyl)carbamoyl)-2-(6-hydroxy-3-oxo-3H-xanthen-9-yl)benzoic acid]
Kd [4]: < 10 nM
selectivity for HsmPheRS over HscPheRS [5]: > 1,000 fold
Kd [6]: > 10 µM
